According to patent US8927715B2, “Inhibitors of 11β-hydroxysteroid dehydrogenase type 1” (Vitae Pharmaceuticals, Inc., priority 2006, dated 2015):
pIC50: −log10 of the molar value.

The molecules below were run against human 11β-HSD1 (Homo sapiens, UniProt P28845) (assay: Inhibition of a microsomal preparation of 11β-HSD1, SPA (Biological Test Example 2)). Conditions: read-out: Biological Test Example 2 (IC50 class).
Type: biochemical
Set-up: expressed in transfected cells; host or cells: CHO cells (microsomes)
Method: All reactions are carried out at room temperature in 96 well clear flexible PET Microbeta plates (PerkinElmer). […] After a 10 minute pre-incubation, 50 μL of enzyme solution containing microsomes isolated from CHO cells overexpressing human 11β-HSD1 (10-20 μg/ml of total protein) is added, and the plates are then incubated for 90 minutes at room temperature. The reaction is stopped by adding 50 μl of the SPA beads suspension containing […] 18β-glycyrrhetinic acid, 5 mg/ml protein A coated YSi SPA beads (GE Healthcare) and 3.3 μg/ml of anti-cortisol antibody (East Coast Biologics) in Superblock buffer (Bio-Rad). The plates are then shaken for 120 minutes at room temperature, and the SPA signal corresponding to [^3H]cortisol is measured on a Microbeta plate reader.

Chain of human 11β-HSD1 (P28845 whole entry): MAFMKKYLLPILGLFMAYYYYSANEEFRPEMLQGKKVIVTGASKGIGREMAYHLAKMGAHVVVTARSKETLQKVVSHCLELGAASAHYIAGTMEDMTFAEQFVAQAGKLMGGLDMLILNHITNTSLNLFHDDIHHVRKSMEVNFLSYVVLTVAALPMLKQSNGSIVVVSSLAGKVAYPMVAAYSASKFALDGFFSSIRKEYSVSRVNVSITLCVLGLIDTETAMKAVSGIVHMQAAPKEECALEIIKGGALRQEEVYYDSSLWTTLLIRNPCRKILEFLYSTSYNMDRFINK

pIC50	Molecule
> 7.30	CCOC(=O)CC1CC2(CCN(C(=O)NC3C4CC5CC(C4)CC3C5)CC2)c2c(Br)cccc21 (racemic) [Example 42, (±)-Ethyl 2-(7-bromo-1′-((2-adamantyl)carbamoyl)-2,3-dihydrospiro[indene-1,4′-piperidine]-3-yl)acetate]
> 7.30	O=C(O)CC1CC2(CCN(C(=O)NC3C4CC5CC(C4)CC3C5)CC2)c2c(Br)cccc21 (racemic) [Example 43, (±)-2-(7-Bromo-1′-((2-adamantyl)carbamoyl)-2,3-dihydrospiro[indene-1,4′-piperidine]-3-yl)acetic acid]
> 7.30	N#CCC1CC2(CCN(C(=O)NC3C4CC5CC(C4)CC3C5)CC2)c2ccccc21 (racemic) [Example 45]
> 7.30	O=C(NC1C2CC3CC(C2)CC1C3)N1CCC2(CC1)CC(Cc1nnn[nH]1)c1ccccc12 (racemic) [Example 46, (±)-3-((1H-Tetrazol-5-yl)methyl)-N-(2-adamantyl)-2,3-dihydrospiro[indene-1,4′-piperidine]-1′-carboxamide]
> 7.30	CCOC(=O)CC1CC2(CCN(C(=O)NC3C4CC5CC(C4)CC3C5)CC2)c2c(C)cccc21 (racemic) [Example 47, (±)-Ethyl 2-(1′-((2-adamantyl)carbamoyl)-7-methyl-2,3-dihydrospiro[indene-1,4′-piperidine]-3-yl)acetate]
> 7.30	Cc1cccc2c1C1(CCN(C(=O)NC3C4CC5CC(C4)CC3C5)CC1)CC2CC(=O)O (racemic) [Example 48, (±)-2-(1′-((2-Adamantyl)carbamoyl)-7-methyl-2,3-dihydrospiro[indene-1,4′-piperidine]-3-yl)acetic acid]
> 7.30	CCOC(=O)CC1CC2(CCN(C(=O)NC3C4CC5CC(C4)CC3C5)CC2)c2cccc(C)c21 (racemic) [Example 49, (±)-Ethyl 2(1′-((2-adamantyl)carbamoyl)-4-methyl-2,3-dihydrospiro[indene-1,4′-piperidine]-3-yl)acetate]
> 7.30	CCOC(=O)CC1CC2(CCN(C(=O)NC3C4CC5CC(C4)CC3C5)CC2)c2c(Cl)cccc21 (racemic) [Example 51, (±)-Ethyl 2-(1′-((2-adamantyl)carbamoyl)-7-chloro-2,3-dihydrospiro[indene-1,4′-piperidine]-3-yl)acetate]
> 7.30	O=C(O)CC1CC2(CCN(C(=O)NC3C4CC5CC(C4)CC3C5)CC2)c2c(Cl)cccc21 (racemic) [Example 52, (±)-2-(1′-((2-Adamantyl)carbamoyl)-7-chloro-2,3-dihydrospiro[indene-1,4′-piperidine]-3-yl)acetic acid]
> 7.30	CCOC(=O)CC1CC2(CCN(C(=O)NC3C4CC5CC(C4)CC3C5)CC2)c2cc(Cl)ccc21 (racemic) [Example 53, (±)-Ethyl 2-(1′-((2-adamantyl)carbamoyl)-6-chloro-2,3-dihydrospiro[indene-1,4′-piperidine]-3-yl)acetate]
> 7.30	O=C(O)CC1CC2(CCN(C(=O)NC3C4CC5CC(C4)CC3C5)CC2)c2cc(Cl)ccc21 (racemic) [Example 54, (±)-2-(1′-((2-Adamantyl)carbamoyl)-6-chloro-2,3-dihydrospiro[indene-1,4′-piperidin]-3-yl)acetic acid]
> 7.30	CCOC(=O)CC1CC2(CCN(C(=O)NC3C4CC5CC(C4)CC3C5)CC2)c2ccc(Cl)cc21 (racemic) [Example 55, (±)-Ethyl 2-(1′-((2-adamantyl)carbamoyl)-5-chloro-2,3-dihydrospiro[indene-1,4′-piperidine]-3-yl)acetate]
> 7.30	O=C(O)CC1CC2(CCN(C(=O)NC3C4CC5CC(C4)CC3C5)CC2)c2ccc(Cl)cc21 (racemic) [Example 56, (±)-2-(1′-((2-Adamantyl)carbamoyl)-5-chloro-2,3-dihydrospiro[indene-1,4′-piperidine]-3-yl)acetic acid]
> 7.30	Cc1ccc2c(c1)C1(CCN(C(=O)NC3C4CC5CC(C4)CC3C5)CC1)CC2CC(=O)O (racemic) [Example 57, (±)-2-(1′-((2-Adamantyl)carbamoyl)-6-methyl-2,3-dihydrospiro[indene-1,4′-piperidine]-3-yl)acetic acid]
> 7.30	O=C(O)CC1CC2(CCN(C(=O)NC3C4CC5CC(C4)CC3C5)CC2)c2cc(F)ccc21 (racemic) [Example 60, (±)-2-(1′-((2-Adamantyl)carbamoyl)-6-fluoro-2,3-dihydrospiro[indene-1,4′-piperidine]-3-yl)acetic acid]
> 7.30	CCOC(=O)CC1CC2(CCN(C(=O)NC34CC5CC(CC(C5)C3)C4)CC2)c2c(Br)cccc21 (racemic) [Example 61, (±)-Ethyl 2-(7-bromo-1′-((1-adamantyl)carbamoyl)-2,3-dihydrospiro[indene-1,4′-piperidine]-3-yl)acetate]
> 7.30	O=C(O)CC1CC2(CCN(C(=O)NC34CC5CC(CC(C5)C3)C4)CC2)c2c(Br)cccc21 (racemic) [Example 62, (±)-2-(7-Bromo-1′-((1-adamantyl)carbamoyl)-2,3-dihydrospiro[indene-1,4′-piperidine]-3-yl)acetic acid]
> 7.30	O=C(O)CC1CC2(CCN(C(=O)OC3C4CC5CC(C4)CC3C5)CC2)c2c(Br)cccc21 (racemic) [Example 63, (±)-2-(7-Bromo-1′-((2-adamantyloxy)carbonyl)-2,3-dihydrospiro[indene-1,4′-piperidine]-3-yl)acetic acid]
> 7.30	Cc1ccc2c(c1)C1(CCN(C(=O)OC3C4CC5CC(C4)CC3C5)CC1)CC2CC(=O)O (racemic) [Example 64, (±)-2-(6-Methyl-1′-((2-adamantyloxy)carbonyl)-2,3-dihydrospiro[indene-1,4′-piperidine]-3-yl)acetic acid]
> 7.30	Cc1ccc2c(c1)C(CC(=O)O)CC21CCN(C(=O)OC2C3CC4CC(C3)CC2C4)CC1 (racemic) [Example 65, (±)-2-(5-Methyl-1′-((2-adamantyloxy)carbonyl)-2,3-dihydrospiro[indene-1,4′-piperidine]-3-yl)acetic acid]
> 7.30	CCOC(=O)C(C)(C)C1CC2(CCN(C(=O)NC3C4CC5CC(C4)CC3C5)CC2)c2c(Br)cccc21 (racemic) [Example 67, (±)-Ethyl 2-(7-bromo-1′-((2-adamantyl)carbamoyl)-2,3-dihydrospiro[indene-1,4′-piperidine]-3-yl)-2-methylpropanoate]
> 7.30	CC(C)(C(=O)O)C1CC2(CCN(C(=O)NC3C4CC5CC(C4)CC3C5)CC2)c2c(Br)cccc21 (racemic) [Example 68, (±)-2-(7-Bromo-1′-((2-adamantyl)carbamoyl)-2,3-dihydrospiro[indene-1,4′-piperidine]-3-yl-2-methylpropanoic acid]
> 7.30	CS(=O)(=O)NC(=O)CC1CC2(CCN(C(=O)OC3C4CC5CC(C4)CC3C5)CC2)c2c(Br)cccc21 (racemic) [Example 69, (±)-2-Adamantyl 7-bromo-3-(2-(methylsulfonamido)-2-oxoethyl)-2,3-dihydrospiro[indene-1,4′-piperidine]-1′-carboxylate]
> 7.30	CS(=O)(=O)NC(=O)CC1CC2(CCN(C(=O)NC3C4CC5CC(C4)CC3C5)CC2)c2c(Br)cccc21 (racemic) [Example 70, (±)-7-Bromo-N-(2-adamantyl)-3-(2-(methylsulfonamido)-2-oxoethyl)-2,3-dihydrospiro[indene-1,4′-piperidine]-1′-carboxamide]
> 7.30	CN(C)C(=O)CC1CC2(CCN(C(=O)OC3C4CC5CC(C4)CC3C5)CC2)c2ccccc21 (racemic) [Example 71, (±)-2-Adamantyl 3-(2-(dimethylamino)-2-oxoethyl)-2,3-dihydrospiro[indene-1,4′-piperidine]-1′-carboxylate]
6.00 to 7.30	O=C(O)CC1CC2(CCN(C(=O)NC3C4CC5(O)CC3CC(O)(C4)C5)CC2)c2c(Br)cccc21 (racemic) [Example 76, (±)-2-(7-Bromo-1′-(1,7-dihydroxy-4-adamantylcarbamoyl)-2,3-dihydrospiro[indene-1,4′-piperidine]-3-yl)acetic acid]
> 7.30	O=C(O)[C@@H]1C[C@H]1C(=O)N1Cc2ccccc2C2(CCN(C(=O)OC3C4CC5CC(C4)CC3C5)CC2)C1 (mixture of isomers) [Example 100, (1RS,2RS)-2-(1′-(2-Adamantyloxycarbonyl)-2,3-dihydro-1H-spiro[isoquinoline-4,4′-piperidine]-2-ylcarbonyl)cyclopropanecarboxylic acid]
> 7.30	O=C(NC1C2CC3CC(C2)CC1C3)N1CCC2(CC1)CC(CCO)c1cccc(Br)c12 (racemic) [Example 122, (±)-7-Bromo-N-(2-adamantyl)-3-(2-hydroxyethyl)-2,3-dihydrospiro[indene-1,4′-piperidine]-1′-carboxamide]

Molecule	pIC50
3-(1′-(2-Adamantyloxycarbonyl)-1H-spiro[isoquinoline-4,4′-piperidine]-2(3H)-ylsulfonyl)propanoic acid [Example 109]	> 7.30
3-(1′-((2-Adamantyl)carbamoyl)-1H-spiro[isoquinoline-4,4′-piperidine]-2(3H)-yl)propanoic acid [Example 33]	> 7.30
4-(1′-(2-Adamantyloxycarbonyl)-1H-spiro[isoquinoline-4,4′-piperidine]-2(3H)-yl)-4-oxobutanoic acid [Example 94]	> 7.30
COc1ccc2c(c1)C1(CCN(C(=O)NC3C4CC5CC(C4)CC3C5)CC1)CC2CC(=O)O (racemic) [Example 59, (±)-2-(1′-((2-Adamantyl)carbamoyl)-6-methoxy-2,3-dihydrospiro[indene-1,4′-piperidine]-3-yl)acetic acid]	> 7.30
